From patent publication US10543258B2, “Antibacterial composition containing ADK protein as active ingredient, or composition for preventing or treating sepsis” (priority 2014, dated 2020)

Legend:
P. aeruginosa = experiment: Growth of bacteria in LB broth, CFU over time; type: cell-based, Pseudomonas aeruginosa; conditions: 37° C., Adk 20, 50, 100 μg/ml, ampicillin 100 μg/ml, FIG. 3
S. aureus = experiment: Growth of bacteria in LB broth, CFU over time; type: cell-based, Staphylococcus aureus; conditions: 37° C., Adk 20, 50, 100 μg/ml, ampicillin 100 μg/ml, FIG. 4
Procedure: (§1) To verify the antibacterial activity of the recombinant ADK protein obtained in Example 1, the effect of the ADK protein on the growth of gram-negative bacteria such as E. coli and P. aeruginosa and a gram-positive bacterium such as S. aureus was analyzed.
(§2) More specifically, 1×10^5 CFU of strains were put into a 10 ml LB broth, and an antibiotic (ampicillin) and the ADK protein were added respectively according to five conditions as follows (Group 1: LB broth media with 100 μg/ml ampicillin, Group 2: LB broth media with 20 μg/ml Adk, Group 3: LB broth media with 50 μg/ml Adk, Group 4: LB broth media with 100 μg/ml Adk, Group 5: Non-antibacterial agent LB broth media). The strains were cultured in a 37° C. shaking incubator, 100 μl aliquots of each group was taken at 3-hour intervals and diluted with an LB broth in predetermined ratios, followed by plating the resulting cells on an LB agar (Biobasic, Amherst, N.Y.) plate. The cells were cultured again in a 37° C. incubator overnight, and then CFU values over time were calculated by counting the number of colonies on the LB agar plate.

E. coli = experiment: Growth of bacteria in LB broth, CFU over time; type: cell-based, Escherichia coli; conditions: 37° C., Adk 20, 50, 100 μg/ml, ampicillin 100 μg/ml, FIG. 2
Procedure: as §1, §2

E. coli K1 [1] = experiment: Sepsis animal model, serum analysis; type: in vivo, BALB/c mice; conditions: 12 hours after sepsis induction; LAL assay kit; FIG. 15
Procedure: Twelve hours after sepsis induction, levels of inflammatory cytokines (TNF-α, IL-6, and IL-1β), AST, ALT, BUN, and endotoxins in sera isolated from mice were analyzed. Here, a cytokine concentration was measured using an ELISA kit (eBiosciences, San Diego, Calif.), and endotoxins were analyzed using an endotoxin detection kit (LAL assay kit, Thermo Fisher Scientific, Bremen, Germany).

E. coli K1 [2] = experiment: Sepsis animal model, survival rate; type: in vivo, BALB/c mice; conditions: gentamicin 100 μg/kg intraperitoneally; FIG. 12

Row | Compound | growth of P. aeruginosa (CFU over time) (P. aeruginosa) | growth of S. aureus (CFU over time) (S. aureus) | growth of E. coli (CFU over time) (E. coli) | amount of endotoxins in mouse sera (E. coli K1 [1]) | time after sepsis induction at which all mice were dead (E. coli K1 [2]) [h]
1 | CC1(C)S[C@@H]2[C@H](NC(=O)[C@H](N)c3ccccc3)C(=O)N2[C@H]1C(=O)O [ampicillin] | inhibited | inhibited | inhibited | – | –
2 | gentamicin | – | – | – | a significant difference from the negative control (CON) was not observed | 30
